Source: US20260364213A1, “RADIOLABELED COMPOUNDS OF TRIMETHOPRIM AND USES THEREOF” (THE TRUSTEES OF THE UNIVERSITY OF PENNSYLVANIA, priority 2023, published 2026)

How the values were obtained:
[1] = system: primary human hepatocytes; test: Hepatocyte spheroid assay (liver metabolite study); assay type: in vitro ADME
Procedure: Cryopreserved primary human hepatocytes were acquired from ThermoFisher. To each well of a 96 well ultra-low attachment U-bottom plate, 2,000 cells were plated in 200 μL William's E Medium (no phenol red, 20% FBS, 1% penicillin-streptomycin, 1% insulin-transferrin-selenium solution, […], 1% L-glutamine). The plate was centrifuged at 300 rpm for 2 minutes and then incubated without disturbance. After 5 days, 100 μL of spent media was removed and replaced with fresh media. […] The supernatant was then removed and analyzed on an Agilent 1260 Infinity II LC system equipped with an Eckert & Ziegler FlowCountPRO detector.
Specifically, 2,000 cells were plated in 200 μL William's E Medium (no phenol red, 20% FBS, 1% penicillin-streptomycin, 1% insulin-transferrin-selenium solution, […], 1% L-glutamine). […] The supernatant was then removed and analyzed on an Agilent 1260 Infinity II LC system equipped with an Eckert & Ziegler FlowCountPRO detector.
Specifically, cryopreserved hepatocytes were thawed and diluted 1:10 in a 15 mL conical tube with warm culture media (William's E Medium, no phenol red, 20% FBS, 1% penicillin-streptomycin, 1% insulin-transferrin-selenium solution, […], 1% L-glutamine). […] Cells were counted and diluted to a concentration of 10,000 live cells/mL. […] The supernatant was transferred into an autosampler vial and analyzed by HPLC.

I45 eDHFR-FLAG tumors = test: Biodistribution in I45 tumor-bearing CD1 nude mice; assay type: in vivo, human; settings: 24 hours
Procedure: RLT in I45 tumors. […] Briefly, I45 eDHFR-FLAG and WT cells were xenografted into the shoulders of female athymic CD1-Foxn1nu mice. The tumors were allowed to grow for ~2 weeks. Subsequently, [^131I]I-TMP was administered intravenously and a limited biodistribution study was performed. […] To assess for cytotoxicity in I45 mesothelioma cells, I45 WT and I45 eDHFR tumors were separately xenografted into CD1-Foxn1nu mice and either [^131I]I-TMP or saline was administered to form 4 experimental cohorts (n=7).
(v) In vivo I45 eDHFR-FLAG Tumor Model. Female CD1 nu/nu mice, aged six to eight weeks, were subject to subcutaneous xenografting. Specifically, I45 eDHFR-Flag cells (1×10^6 cells/mouse) were suspended in a solution comprising equal volumes of 75 μL RPMI complete medium and 75 μL Matrigel Matrix (Corning, 354234) for implantation on the shoulder.

eDHFR = biological target: T1, eDHFR (Escherichia coli, UniProt P0ABQ4); assay type: cell-based; settings: I45 mesothelioma cells, eDHFR-FLAG vs WT; 60 min at 37 °C
T1 sequence (P0ABQ4 1-159): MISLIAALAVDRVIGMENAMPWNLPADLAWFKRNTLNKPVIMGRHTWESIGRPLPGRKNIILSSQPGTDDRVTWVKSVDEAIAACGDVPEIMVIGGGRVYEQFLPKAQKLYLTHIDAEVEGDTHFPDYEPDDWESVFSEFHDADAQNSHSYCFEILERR
From the text: See, FIG. 1E. […] See, FIG. 1F.

Row | Structure (SMILES) | de-iodination in hepatocyte culture ([1]; after 24 hours) | de-iodination with CYP450 inhibitor ([1]; with 1-aminobenzotriazole (100 μM)) | presence in eDHFR+ tumors (I45 eDHFR-FLAG tumors; 18.5 MBq i.v.) | uptake in eDHFR tumors compared to WT tumors (I45 eDHFR-FLAG tumors) | washout from eDHFR tumors (I45 eDHFR-FLAG tumors) | uptake in eDHFR+ cells compared to wild type (eDHFR)
1 | COc1cc(Cc2cnc(N)nc2N)cc(I)c1OC [[^131I]mI-TMP, 5-(3-iodo-4,5-dimethoxybenzyl)pyrimidine-2,4-diamine] | minor de-iodination | could be inhibited |  |  |  | 
2 | COc1cc(Cc2cnc(N)nc2N)cc([131I])c1OC [[^131I]mI-TMP, 5-(3-iodo-4,5-dimethoxybenzyl)pyrimidine-2,4-diamine] |  |  | present in eDHFR+ tumors, even after 24 hours | over 1000 fold | without substantial washout | ~ 80 fold
